The term IC50 denotes the midpoint of a concentration-inhibition curve.

Common to all, as to type: protein assay
For assay [1], the target named is T1, Opioid receptor (Rattus norvegicus, UniProt P33533+P34975+P33535). In words: Compound was tested for its ability to displace [3H]naloxone from Opioid receptors in absence of NaCl.
The target in assay [2] is T1, Opioid receptor. In words: Compound was tested for its ability to displace [3H]naloxone from Opioid receptors in presence of NaCl (100 mM).
Assay [3] concerns the target T1, Opioid receptor. In words: Compound was tested for its ability to displace [3H]- naloxone] from Opioid receptors in absence of NaCl.
The target in assay [4] is T1, Opioid receptor. As to the kind of experiment: Compound was tested for its ability to displace [3H]- naloxone] from Opioid receptors in presence of NaCl (100 mM).

In the case of `CCC1C2Cc3ccc(O)cc3C1(CC)CCN2C(=O)C(N)CC(C)C` (centres undefined), the IC50 on Opioid receptor [1] is reported as 1503 nM; at Opioid receptor [2] it was 6384 nM.

`CC[C@H]1[C@H]2Cc3ccc(O)cc3[C@]1(CC)CCN2`: the IC50 at Opioid receptor [3] was found to be 20 nM; on Opioid receptor [4], 360 nM.

For `CCC1C2Cc3ccc(O)cc3C1(CC)CCN2C(=O)C(N)CCCN=C(N)N.Cl` (centres undefined), the values for the IC50 at Opioid receptor [1] and at Opioid receptor [2] were 15.5 nM and 660 nM, respectively.

For `CCC1C2Cc3ccc(O)cc3C1(CC)CCN2C(=O)C(N)CCSC.Cl` (centres undefined), the IC50 on Opioid receptor [1] is 301 nM; on Opioid receptor [2], 5586 nM.

For `CCC1C2Cc3ccc(O)cc3C1(CC)CCN2C(=O)CN.Cl` (centres undefined), the IC50 on Opioid receptor [1] is reported as 287 nM; on Opioid receptor [2], 8184 nM.

`CCC1C2Cc3ccc(O)cc3C1(CC)CCN2C(=O)C(N)Cc1ccccc1.Cl` (stereo in doubt; 2d): the 50% inhibitory concentration (IC50) on Opioid receptor [1] is reported as 1540 nM; at Opioid receptor [2], 3350 nM.

Consider `CCC1C2Cc3ccc(O)cc3C1(CC)CCN2C(=O)C(N)Cc1ccccc1.Cl` (stereo in doubt; 2e), for which the IC50 at Opioid receptor [1] and at Opioid receptor [2] was above 10000 nM each time.

Source of the values: ChEMBL document CHEMBL1121889, “Preparation and analgesic properties of amino acid derivatives of (-)-5,9 alpha-diethyl-2'-hydroxybenzomorphan” (J Med Chem, 1981).
